Results on nine compounds are retold here after patent US10828315B2 (Madrigal Pharmaceuticals, Inc., priority 2013, dated 2020).

Read-outs that look alike come from different tables or passages of the source.

The nature of series [1]: Mouse plasma stability protocol, up to 1 h (Examples 16-18). The conditions noted are these: % Remaining of parent after 1 h incubation in mouse plasma at 37° C. (10 μM).
Series [2] in a line: Metabolite profiling and identification. The series is classed as in vitro ADME. More on the design: key: —: Not detected. The conditions noted are these: for Metabolite Hydrolysis (SN-38): M+1 393.3; for Metabolite Hydrolysis (SDC-TRAP-0062): M+1 462.3; for Metabolite Hydrolysis (SN-38) + glucuronidation: M+1 569.3; for Metabolite Hydrolysis (SDC-TRAP-0062) + glucuronidation: M+1 638.3; for Metabolite Hydrolysis (SDC-TRAP-0063): M+1 880.3; for Metabolite Hydrolysis (SDC-TRAP-0063) + glucuronidation: M+1 1056.4; for Metabolite Glucuronidation: M+1 1136.4; for Metabolite N-dealkylation + glucuronidation: M+1 527.3; for Metabolite Sulfation: M+1 542.3. The source says:
Metabolite Profiling and Identification: Metabolite profiling/identification for SDC-TRAP-0063 (M+1:880.3)

The conditions of series [3]: female, SCID, mouse, in vivo.

Take `CCc1c2c(nc3ccc(OC(=O)N(C)CC(=O)N4CCC(CCn5ccc6cc(-n7c(O)nnc7-c7cc(C(C)C)c(O)cc7O)ccc65)CC4)cc13)-c1cc3c(c(=O)n1C2)COC(=O)[C@]3(O)CC` [SDC-TRAP-0337, (S)-4,11-diethyl-4-hydroxy-3,14-dioxo-3,4,12,14-tetrahydro-1H-pyrano[3′,4′: 6,7]indolizino[1,2-b]quinolin-9-yl (2-(4-(2-(5-(3-(2,4-dihydroxy-5-isopropylphenyl)-5-hydroxy-4H-1,2,4-triazol-4-yl)-1H-indol-1-yl)ethyl)piperidin-1-yl)-2-oxoethyl)(methyl)carbamate]: the “% Remaining (1 h)” value in series [1] was found to be 77.3%.

On to `CCNC(=O)c1nnc(-c2cc(C(C)C)c(O)cc2O)n1-c1ccc(C(=O)N2CCN(c3ccc(OC(=O)Nc4cccc5c4C(=O)N(C4CCC(=O)NC4=O)C5=O)c(OC)c3)CC2)cc1` (stereo not drawn) [SDC-TRAP-0398, 4-(4-(4-(3-(2,4-dihydroxy-5-isopropylphenyl)-5-(ethylcarbamoyl)-4H-1,2,4-triazol-4-yl)benzoyl)piperazin-1-yl)-2-methoxyphenyl (2-(2,6-dioxopiperidin-3-yl)-1,3-dioxoisoindolin-4-yl)carbamate], for which the “% Remaining (1 h)” value in series [1] is reported as 1.40%.

`CCc1c2c(nc3ccc(OC(=O)N4CCC(CCn5ccc6cc(-n7c(O)nnc7-c7cc(C(C)C)c(O)cc7O)ccc65)CC4)cc13)-c1cc3c(c(=O)n1C2)COC(=O)C3(CC)OP(=O)(O)O` (stereo not drawn) [SDC-TRAP-0397, 4,11-diethyl-3,14-dioxo-4-(phosphonooxy)-3,4,12,14-tetrahydro-1H-pyrano[3′,4′: 6,7]indolizino[1,2-b]quinolin-9-yl 4-(2-(5-(3-(2,4-dihydroxy-5-isopropylphenyl)-5-hydroxy-4H-1,2,4-triazol-4-yl)-1H-indol-1-yl)ethyl)piperidine-1-carboxylate]: in series [2] (Hepatocytes Dog), the “Metabolite Hydrolysis (SN-38)” value is recorded as “√”, the “Metabolite Hydrolysis (SDC-TRAP-0062)” value is on record as “√”, the “Metabolite Hydrolysis (SN-38) + glucuronidation” value is “—” and the “Metabolite Hydrolysis (SDC-TRAP-0062) + glucuronidation” value is “—”. Further, in series [2] (Hepatocytes Dog), the “Metabolite Hydrolysis (SDC-TRAP-0063)” value was “—”, the “Metabolite Hydrolysis (SDC-TRAP-0063) + glucuronidation” value was “—” and the “Metabolite Glucuronidation” value is “—”. In series [2] (Hepatocytes Human), the “Metabolite Hydrolysis (SN-38)” value is on record as “√”, the “Metabolite Hydrolysis (SDC-TRAP-0062)” value is “√”, the “Metabolite Hydrolysis (SN-38) + glucuronidation” value was “—” and the “Metabolite Hydrolysis (SDC-TRAP-0062) + glucuronidation” value is “—”. Further, in series [2] (Hepatocytes Human), the “Metabolite Hydrolysis (SDC-TRAP-0063)” value was “√”, the “Metabolite Hydrolysis (SDC-TRAP-0063) + glucuronidation” value is listed as “√” and the “Metabolite Glucuronidation” value is reported as “—”. Moreover, in series [2] (Hepatocytes Monkey), the “Metabolite Hydrolysis (SN-38)” value is “—”, the “Metabolite Hydrolysis (SDC-TRAP-0062)” value was “—”, the “Metabolite Hydrolysis (SN-38) + glucuronidation” value was “√” and the “Metabolite Hydrolysis (SDC-TRAP-0062) + glucuronidation” value is recorded as “√”. In addition, in series [2] (Hepatocytes Monkey), the “Metabolite Hydrolysis (SDC-TRAP-0063)” value was “—”, the “Metabolite Hydrolysis (SDC-TRAP-0063) + glucuronidation” value is “√” and the “Metabolite Glucuronidation” value was “√”. Also, in series [2] (Hepatocytes Mouse), the “Metabolite Hydrolysis (SN-38)” value is given as “√”, the “Metabolite Hydrolysis (SDC-TRAP-0062)” value is “√”, the “Metabolite Hydrolysis (SN-38) + glucuronidation” value is given as “—” and the “Metabolite Hydrolysis (SDC-TRAP-0062) + glucuronidation” value is on record as “—”. Moreover, in series [2] (Hepatocytes Mouse), the “Metabolite Hydrolysis (SDC-TRAP-0063)” value was “—”, the “Metabolite Hydrolysis (SDC-TRAP-0063) + glucuronidation” value is given as “√” and the “Metabolite Glucuronidation” value was “√”. In series [2] (Hepatocytes Rat), the “Metabolite Hydrolysis (SN-38)” value is reported as “—”, the “Metabolite Hydrolysis (SDC-TRAP-0062)” value was “√”, the “Metabolite Hydrolysis (SN-38) + glucuronidation” value was “—” and the “Metabolite Hydrolysis (SDC-TRAP-0062) + glucuronidation” value is reported as “—”. Also, in series [2] (Hepatocytes Rat), the “Metabolite Hydrolysis (SDC-TRAP-0063)” value is given as “—”, the “Metabolite Hydrolysis (SDC-TRAP-0063) + glucuronidation” value was “√” and the “Metabolite Glucuronidation” value was “—”.

Take `CCc1c2c(nc3ccc(OC(=O)N4CCC(N5CCC(CCn6ccc7ccc(-n8c(O)nnc8-c8cc(C(C)C)c(O)cc8O)cc76)CC5)CC4)cc13)-c1cc3c(c(=O)n1C2)COC(=O)C3(O)CC` (stereo not drawn) [SDC-TRAP-0353, 4,11-diethyl-4-hydroxy-3,14-dioxo-3,4,12,14-tetrahydro-1H-pyrano[3′,4′:6,7]indolizino[1,2-b]quinolin-9-yl 4-(2-(6-(3-(2,4-dihydroxy-5-isopropylphenyl)-5-hydroxy-4H-1,2,4-triazol-4-yl)-1H-indol-1-yl)ethyl)-[1,4′-bipiperidine]-1′-carboxylate]: in series [1], the “% Remaining (1 h)” value came to 22.5%.

For the compound `CCc1c2c(nc3ccc(O)cc13)-c1cc3c(c(=O)n1C2)COC(=O)C3(CC)OC(=O)N(C)Cc1ccc(OC(=O)N2CCN(Cc3ccc(-n4c(O)nnc4-c4cc(C(C)C)c(O)cc4O)cc3)CC2)cc1` (stereo not drawn) [SDC-TRAP-0356, 4-(((((4,11-diethyl-9-hydroxy-3,14-dioxo-3,4,12,14-tetrahydro-1H-pyrano[3′,4′:6,7]indolizino[1,2-b]quinolin-4-yl)oxy)carbonyl)(methyl)amino)methyl)phenyl 4-(4-(3-(2,4-dihydroxy-5-isopropylphenyl)-5-hydroxy-4H-1,2,4-triazol-4-yl)benzyl)piperazine-1-carboxylate], the “% Remaining (1 h)” value in series [1] is 70.9%.

Consider `CCc1c2c(nc3ccc(O)cc13)-c1cc3c(c(=O)n1C2)COC(=O)[C@@]3(CC)OC(=O)CN1CCC(CCc2ccc(-n3c(O)nnc3-c3cc(C(C)C)c(O)cc3O)cc2)CC1` [SDC-TRAP-0106, (S)-4,11-diethyl-9-hydroxy-3,14-dioxo-3,4,12,14-tetrahydro-1H-pyrano[3′,4′:6,7]indolizino[1,2-b]quinolin-4-yl 2-(4-(4-(3-(2,4-dihydroxy-5-isopropylphenyl)-5-hydroxy-4H-1,2,4-triazol-4-yl)phenethyl)piperidin-1-yl)acetate], for which, in series [1], the “% Remaining (1 h)” value is 114%.

For the compound `CCc1c2c(nc3ccc(OC(=O)N4CCN(S(=O)(=O)N5CCC(CCn6ccc7cc(-n8c(O)nnc8-c8cc(C(C)C)c(O)cc8O)ccc76)CC5)CC4)cc13)-c1cc3c(c(=O)n1C2)COC(=O)C3(O)CC` (stereo not drawn) [SDC-TRAP-0361, 4,11-diethyl-4-hydroxy-3,14-dioxo-3,4,12,14-tetrahydro-1H-pyrano[3′,4′: 6,7]indolizino[1,2-b]quinolin-9-yl 4-((4-(2-(5-(3-(2,4-dihydroxy-5-isopropylphenyl)-5-hydroxy-4H-1,2,4-triazol-4-yl)-1H-indol-1-yl)ethyl)piperidin-1-yl)sulfonyl)piperazine-1-carboxylate], in series [1], the “% Remaining (1 h)” value was 25.6%.

As to `CC(C)c1cc(-c2nnc(O)n2-c2ccc3c(ccn3CCC3CCNCC3)c2)c(O)cc1O` [DP-1], the “Tumor Conc.” value was 0.404 nmol/g of tissue in series [3] (24 h), 1.06 nmol/g of tissue in series [3] (48 h) and 0.00758 nmol/g of tissue in series [3] ([…]).

Turning to `CC(C)c1cc(-c2nnc(O)n2-c2ccc3c(ccn3CCC3CCNCC3)c2)c(O)cc1O` [SDC-TRAP-0062], the “Metabolite N-dealkylation + glucuronidation” value in series [2] (Hepatocytes Dog) is listed as “√”; in series [2] (Hepatocytes Human), “√”; in series [2] (Hepatocytes Monkey), “—”; in series [2] (Hepatocytes Mouse), “√”; in series [2] (Hepatocytes Rat), “—”. In addition, the entries for the “Metabolite Sulfation” value in series [2] (Hepatocytes Mouse) and in series [2] (Hepatocytes Rat) were “—” and “√”, respectively.
